Experimental data reported in US20240174641A1, “HETEROCYCLIC COMPOUNDS CAPABLE OF […]” (Boehringer Ingelheim International GmbH, priority 2022, published 2024).

Tests used:
STING = STING (Canis lupus familiaris, UniProt A0A8I3MH52); assay: Dog whole blood (dWB) assay, IFNb secretion by ELISA; type: cell-based; conditions: canine Interferon-beta (IFNb) ELISA, 4 h incubation at 37° C.
Protocol: For the detection of STING activation in physiological environment dog whole blood (dWB) was stimulated by the cyclic dinucleotide cGAMP or a test compound. Pathway activity was monitored by measuring the IFNb production.
Compounds were delivered as 10 mM DMSO solution, diluted and transferred by using an Echo acoustic dispenser to the 384 well assay plate (Greiner #781182), pre-filled with 10 μl 1×HBSS in each well (10×HBSS (+Ca/+Mg), #14065-049, Gibco). Typically, 8 concentrations were used with the highest concentration at 10 μM in the final assay volume followed by approximately 1:4 dilution steps. DMSO concentration was set to 0.1% in the final assay volume. The 384-well assay plate contained 20 test compounds and DMSO in control and cGAMP standard wells. The dog whole blood was collected as Na-Citrate blood (e.g., 3.8% in Monovettes from Sarstedt) and kept at 4° C. overnight until use in the assay. 80 μl of the whole blood samples were transferred to each well of the 384-well assay plates filled with compound/1×HBSS. Blood plates were kept at room temperature for 60 minutes and continuous shaking with 450 rpm, covered with the lid, but not sealed. A 10×cGAMP assay solution was diluted from a 2 mM stock solution in 1×HBSS immediately before use at room temperature. 10 μl of the 10×cGAMP/HBSS were added to the high control wells, whereas HBSS only was added to all compound and low control wells. After covering assay plates with the lid, blood plates were kept for a 4 h incubation at 37° C. in the incubator, without shaking. For the detection of IFNb in dog plasma the ELISA Kit for Canine Interferon Beta (Biotrend #SEA222Ca) was used. Whole blood assay plates were centrifuged at 1000 g for 10 minutes at 8° C. […] was transferred with a 96 well pipetting robotics from the 384 well whole blood plate to the corresponding 96 well ELISA plate, pre-filled with 60 μl assay diluent in each well. Plates were sealed with microplate seals and kept at 4° C. overnight again. ELISA plates were brought to room temperature, followed by a 1 h incubation at 37° C. in the incubator. Detection Reagent A working solution was prepared by diluting Detection Reagent A 1:100 in Assay Reagent A. Liquid was then removed from the 96 well ELISA plate to add 100 μL Detection Reagent A working solution to each well. ELISA plates were covered with the plate sealer and incubated for 1 hour at 37° C. in the incubator. The 1× Wash buffer was prepared by diluting the 30× Wash Buffer Concentrate in H2O. Detection Reagent B working solution was prepared by diluting Detection Reagent B 1:100 in Assay Reagent B. The ELISA plates were washed three times with 350 μl wash buffer and afterwards inverted and blotted against absorbent paper to remove any liquid. 100 μL of Detection Reagent B working solution was added to each well of the ELISA plates, which are then covered with the plate sealer and incubated for 30 minutes at 37° C. in the incubator. After incubation the ELISA assay plates were washed five times with 350 μl wash buffer and were again inverted and blotted against absorbent paper to remove any remaining liquid. 90 μL of TMB Substrate was added to each well of the ELISA plates, which were then covered with the plate sealer and incubated for 15 minutes at 37° C. in the incubator. The reaction was stopped by adding 50 μL stop solution and absorbance was measured at 450 nm immediately.
For data evaluation and calculation, % control calculation of each well was based on the mean of high (cGAMP stimulated control) and mean of low (unstimulated control) controls by using the following standard 4 parameter logistic regression formula:
[y=(a−d)/(1+(x/c)^b)+d] • a=low value, • d=high value, • x=conc M, • c=EC50 M, • b=slope. Dog Liver Microsome (dLM) Assay

dog STING (dSTING) = assay: Dog differential scanning fluorimetry (DSF) assay, thermal shift of dog STING protein; type: binding; conditions: DSF (dDSF); 100 μM compound, 3 μM dog STING protein; Tm with ligand minus Tm of protein alone
How it was run: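 Dog STING residues 149–375, His-tag removed by TEV, tested at 3 μM with 100 μM compound, 5× SYPRO Orange and 2% DMSO in 20 mM Tris, 150 mM NaCl, pH 7.5. Heated 15–95 °C in 0.5 °C steps. Tm from Boltzmann fit, duplicates averaged; ΔTm relative to protein alone.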

Sequence of STING (A0A8I3MH52 1-374): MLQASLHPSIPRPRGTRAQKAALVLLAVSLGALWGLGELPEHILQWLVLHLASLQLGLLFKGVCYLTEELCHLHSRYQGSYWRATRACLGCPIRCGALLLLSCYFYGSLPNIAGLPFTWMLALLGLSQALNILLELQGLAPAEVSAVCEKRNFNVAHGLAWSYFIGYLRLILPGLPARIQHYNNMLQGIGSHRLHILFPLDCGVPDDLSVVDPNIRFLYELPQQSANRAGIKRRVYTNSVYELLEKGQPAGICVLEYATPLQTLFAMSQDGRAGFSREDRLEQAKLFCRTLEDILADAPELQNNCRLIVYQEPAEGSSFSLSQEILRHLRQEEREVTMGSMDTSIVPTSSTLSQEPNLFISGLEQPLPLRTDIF

Compound | EC50 (STING) [nM] | Delta TM (dog STING (dSTING)) [°C]
Cc1cccc2c(-c3c(F)ccc4nn(C)cc34)nn(-c3ccc(N4C[C@@H]5[C@H](C4)[C@H]5C(=O)O)nc3)c12 [Example 5, (1R,5S,6S)-3-(5-{5″-Fluoro-2″,7-dimethyl-1H,2″H-[3,4″-biindazol]-1-yl}pyridin-2-yl)-3-azabicyclo[3.1.0]hexane-6-carboxylic acid] | 282 | 36.5
CC(=O)N1CCN(c2ccc(-n3nc(-c4cccc5nn(C)c(F)c45)c4cccc(C)c43)cn2)CC1 [Example 8, 1-[4-(5-{3″-Fluoro-2″,7-dimethyl-1H,2″H-[3,4″-biindazol]-1-yl}pyridin-2-yl)piperazin-1-yl]ethan-1-one] | 168 | 32.5
CC(=O)N1C[C@H]2C[C@@H]1CN2c1ccc(-n2nc(-c3c(F)cc(F)c4nn(C)cc34)c3cccc(C)c32)cn1 [Example 51, 1-[(1R,4R)-5-(5-{5″,7″-difluoro-2″,7-dimethyl-1H,2″H-[3,4″-biindazol]-1-yl}pyridin-2-yl)-2,5-diazabicyclo[2.2.1]heptan-2-yl]ethan-1-one] | 670 | 29.0
Cc1c(F)ccc2c(-c3cccc4nn(C)c(F)c34)nn(-c3ccc(N4CCC(C(=O)O)CC4)nc3)c12 [Example 60, 1-(5-{3″,6-difluoro-2″,7-dimethyl-1H,2″H-[3,4″-biindazol]-1-yl}pyridin-2-yl)piperidine-4-carboxylic acid] | 195 | 34.5
Cc1cccc2c(-c3ccc(F)c4nn(C)c(F)c34)nn(-c3ccc(N4CC[C@@H](CC(=O)O)C4)nc3)c12 [Example 54, 2-[(3S)-1-(5-{3″,7″-difluoro-2″,7-dimethyl-1H,2″H-[3,4″-biindazol]-1-yl}pyridin-2-yl)pyrrolidin-3-yl]acetic acid] | 261 | 30.0
Cc1cc(F)cc2c(-c3cccc4nn(C)c(F)c34)nn(-c3ccc(N4C[C@@H]5[C@H](C4)[C@H]5C(=O)O)nc3)c12 [Example 10, (1R,5S,6R)-3-(5-{3′,5-Difluoro-2′,7-dimethyl-1H,2′H-[3,4′-biindazol]-1-yl}pyridin-2-yl)-3-azabicyclo[3.1.0]hexane-6-carboxylic acid] | 350 | 33.1
Cc1cc(F)cc2c(-c3c(F)cc(F)c4nn(C)cc34)nn(-c3ccc(N4C[C@@H]5[C@H](C4)[C@H]5C(=O)O)nc3)c12 [Example 15, (1R,5S,6R)-3-(5-{5,5″,7″-Trifluoro-2″,7-dimethyl-1H,2″H-[3,4″-biindazol]-1-yl}pyridin-2-yl)-3-azabicyclo[3.1.0]hexane-6-carboxylic acid] | 1170 | 36.8
Cc1cccc2c(-c3c(F)ccc4nn(C)cc34)nn(-c3ccc(N4CC5CCC4CC5C(=O)O)nc3)c12 (single isomer, unassigned) [Example 28-4] | 206 | 37.9
CC(=O)N1CCN(c2ccc(-n3nc(-c4c(F)ccc5nn(C)cc45)c4cc(F)cc(C)c43)cn2)CC1 [Example 63, 1-[4-(5-{5,5″-difluoro-2″,7-dimethyl-1H,2″H-[3,4″-biindazol]-1-yl}pyridin-2-yl)piperazin-1-yl]ethan-1-one] | 96.8 | 27.4
2-[4-(5-{3″-fluoro-2″,7-dimethyl- 1H,2″H-[3,4″-biindazol]-1-yl}pyridin-2- yl)morpholin-2-yl]acetic acid [Example 18] | 1070 | 28.8
Cc1cccc2c(-c3c(F)cc(F)c4nn(C)cc34)nn(-c3ccc(N4CC5CCC4CC5C(=O)O)nc3)c12 (single isomer, unassigned) [Example 48-4] | 169 | 36.1
Cc1cc(F)cc2c(-c3ccc(F)c4nn(C)cc34)nn(-c3ccc(N4C[C@@H]5[C@H](C4)[C@H]5C(=O)O)nc3)c12 [Example 12, (1R,5S,6R)-3-(5-{5,7″-Difluoro-2″,7-dimethyl-1H,2″H-[3,4″-biindazol]-1-yl}pyridin-2-yl)-3-azabicyclo[3.1.0]hexane-6-carboxylic acid] | 609 | 21.7
Cc1cccc2c(-c3cccc4nn(C)c(F)c34)nn(-c3ccc(N4CCN(C=O)CC4)nc3)c12 [Example 9, 4-(5-{3″-Fluoro-2″,7-dimethyl-1H,2″H-[3,4″-biindazol]-1-yl}pyridin-2-yl)piperazine-1-carbaldehyde] | 192 | 28.5
Cc1cccc2c(-c3cccc4nn(C)c(F)c34)nn(-c3ccc(N4C[C@H]5C[C@@H]4C[C@@H]5C(=O)O)nc3)c12 [Example 73-1, (1R,4S,5S)-2-(5-{3″-fluoro-2″,7-dimethyl-1H,2″H-[3,4″-biindazol]-1-yl}pyridin-2-yl)-2-azabicyclo[2.2.1]heptane-5-carboxylic acid] | 87.5 | 34.5
Cc1c(F)ccc2c(-c3cccc4nn(C)c(F)c34)nn(-c3ccc(N4C[C@@H]5[C@H](C4)[C@H]5C(=O)O)nc3)c12 [Example 11, (1R,5S,6R)-3-(5-{3″,6-Difluoro-2″,7-dimethyl-1H,2″H-[3,4″-biindazol]-1-yl}pyridin-2-yl)-3-azabicyclo[3.1.0]hexane-6-carboxylic acid] | 458 | 34.8
Cc1cccc2c(-c3c(F)ccc4nn(C)cc34)nn(-c3ccc(N4CC[C@H](CC(=O)O)C4)nc3)c12 [Example 25, 2-[(3R)-1-(5-{5″-fluoro-2″,7-dimethyl-1H,2″H-[3,4″-biindazol]-1-yl}pyridin-2-yl)pyrrolidin-3-yl]acetic acid] | 283 | 37.0
Cc1cc(F)cc2c(-c3c(F)ccc4nn(C)cc34)nn(-c3ccc(N4CCC(C(=O)O)CC4)nc3)c12 [Example 62, 1-(5-{5,5″-difluoro-2″,7-dimethyl-1H,2″H-[3,4″-biindazol]-1-yl}pyridin-2-yl)piperidine-4-carboxylic acid] | 295 | 38.0
Cc1cccc2c(-c3cccc4nn(C)c(F)c34)nn(-c3ccc(N4CC[C@@H](CC(=O)O)C4)nc3)c12 [Example 16, 2-[(3S)-1-(5-{3″-fluoro-2″,7-dimethyl-1H,2″H-[3,4″-biindazol]-1-yl}pyridin-2-yl)pyrrolidin-3-yl]acetic acid] | 267 | 34.0
Cc1cc(F)cc2c(-c3c(F)cc(F)c4nn(C)cc34)nn(-c3ccc(N4CCC(C(=O)O)CC4)nc3)c12 [Example 67, 1-(5-{5,5″,7″-trifluoro-2″,7-dimethyl-1H,2″H-[3,4″-biindazol]-1-yl}pyridin-2-yl)piperidine-4-carboxylic acid] | 102 | 37.0
Cc1cccc2c(-c3cccc4nn(C)c(F)c34)nn(-c3ccc(N4C[C@@H]5C[C@H]4C[C@H]5C(=O)O)nc3)c12 [Example 73-2, (1S,4R,5R)-2-(5-{3″-fluoro-2″,7-dimethyl-1H,2″H-[3,4″-biindazol]-1-yl}pyridin-2-yl)-2-azabicyclo[2.2.1]heptane-5-carboxylic acid] | 232 | 33.3
CC(=O)N1C[C@H]2C[C@@H]1CN2c1ccc(-n2nc(-c3cccc4nn(C)c(F)c34)c3cccc(C)c32)cn1 [Example 22, 1-[(1R,4R)-5-(5-{3″-fluoro-2″,7-dimethyl-1H,2″H-[3,4″-biindazol]-1-yl}pyridin-2-yl)-2,5-diazabicyclo[2.2.1]heptan-- 2-yl]ethan1-one] | 244 | 30.4
